Results: US6413736B1, “Astaxanthin over-producing strains of phaffia rhodozyma, methods for their cultivation, and their use in animal feeds” (Archer-Daniels-Midland Company, priority 1993, dated 2002)

Tested on: Rainbow trout (Onchorhynchus mykiss, Shasta strain)
Assay: Rainbow trout feeding trial, 84 days: whole or disrupted Phaffia yeast versus synthetic astaxanthin
Format: in vivo
Details: after 84 days of feeding, FIG. 10, Phaffia versus synthetic astaxanthin
Method: The Phaffia strain was grown in a 2,000 l fermentor in a manner substantially described as above. Cells were concentrated to 15-22% solids by centrifugation and dried. The feed was processed by Zeigler Bros. Inc., […], Pa. The novel Phaffia rhodozma or synthetic astaxanthin (5% Carophyll Pink, Hoffmann-LaRoche) were incorporated into their #1⁄8 Trout Grower pelleted food. Rainbow trout (Onchorhynchus mykiss, Shasta strain) were obtained from a local commercial trout grower. After acclimation to laboratory conditions and an experimental control diet, the trout were moved into separate experimental tanks (28 fish per tank). […] Collectively, the procedures and diets employed in the experiments were designed to result in near-optimal growth of trout at 10 C, the approximate temperature at which most commercially-produced trout are raised. […] The fish were stunned by a blow to the head; total length measured; weight after blotting dry determined; and then each fish was cut across the isthmus severing the ventral aorta. […] The carotenoids were then partitioned into hexanes:ethyl acetate (1:1 by volume) and the total carotenoid and astaxanthin content were determined as described above in the section entitled PIGMENT EXTRACTION AND ASTAXANTHIN ANALYSIS. […] The DMSO extracted carotenoids were then quantified as described above in the section entitled PIGMENT EXTRACTION AND ASTAXANTHIN ANALYSIS. […]

CC1=C(/C=C/C(C)=C/C=C/C(C)=C/C=C/C=C(C)/C=C/C=C(C)/C=C/C2=C(C)C(=O)C(O)CC2(C)C)C(C)(C)CC(O)C1=O (stereo not drawn) [synthetic astaxanthin, 3,3′-dihydroxy-β,β-carotene-4,4′-dione]
flesh carotenoid content: the same
